Data as given in patent EP0035619B1, “Derivatives of 3-amino-(1H,3H)-2,4-quinazolin-diones” (BERRI-BALZAC Société dite:, priority 1980, dated 1981).

Columns and labels:
Format in all cases: in vivo
souris Swiss = test: Acute toxicity (LD50) in Swiss mice
Experimental: Les toxicités aiguës ont été déterminées sur la souris Swiss.
Par exemple, pour le composé de l'exemple 3, la DL50 par voie IP est de 250 mg et per os de 225 mg.

rat vigile = test: Diuretic action in the conscious rat with i.p. isotonic sodium chloride load; conditions: mean increase of diuresis versus mean of controls
Experimental: L'action diurétique est mesurée sur le rat vigile traité par 25 ou 50 mg/kg de substance à tester prise par voie orale ou intrapéritonéale et recevant une injection I.P. de soluté isotonique de chlorure de sodium au début de l'essai. Les rats sont groupés par trois et les expériences sont répétées en croisant les lots de rats.
La diurèse est exprimée par le pourcentage de l'augmentation moyenne de la diurèse par rapport à la moyenne des témoins.
L'action diurétique est mesurée sur le rat vigile traité par 25 ou 50 mg/kg de substance à tester prise par voie orale ou intrapéritonéale et recevant une injection IP de soluté isotonique de chlorure de sodium au début de l'essai. Les rats sont groupés par trois et les expériences sont répétées en croisant les lots de rats.

souris = test: Sedative action: sedation index (hole-board exploration, hypothermia, mobility, agility)
Description: L'action sédative est mesurée par un indice de sédation. Cet indice de sédation tient compte du pourcentage, chez la souris, de la diminution de l'exploration de la planche à trous par rapport à des témoins, de l'hypothermie, de la mobilité, de l'agilité. Les résultats pour le composé de l'exemple 3, sont donnés au Tableau Il.
L'action sédative est mesurée par un indice de sédation. Cet indice de sédation tient compte du pourcentage, chez la souris, de la diminution de l'exploration de la planche à trous par rapport à des témoins, de l'hypothermie, de la mobilité, de l'agilité. Les résultats pour le composé de l'exemple 3 sont donnés au Tableau II.

[1] = Potentiation of psychotropic drugs (Nembutal, Chlorpromazine, morphine) and antagonism of amphetamine
Description: D'autre part, il faut noter une potentialisation par les composés de formule (I) des psychotropes : Nembutal, Chlorpromazine, morphine, et un antagoniste de l'amphétamine. A titre d'exemple, le composé de l'exemple 3 potentialise l'effet hypnotique du Nembutal de + 146 %, celui de la Chlorpromazine de + 50 % et celui de la morphine de 40 %. Par contre, il antagonise à 70 % les effets de l'amphétamine.
D'autre part, il faut noter une potentialisation par les composés de formule (I) des psychotropes : Nembutal, Chlorpromazine, morphine et un antagoniste de l'amphétamine. A titre d'exemple, le composé de l'exemple 3 potentialise l'effet hypnotique du Nembutal de + 146 %, celui de la Chlorpromazine de + 50 % et celui de la morphine de 40 %. Par contre, il antagonise à 70 % les effets de l'amphétamine.

Work on `CN(C)n1c(=O)c2ccccc2n(C)c1=O` [Exemple 3, diméthylamino-3 méthyl-1 (1 H, 3H) quinazolinedione-2,4] yielded a DL50 (souris Swiss; par voie IP) of 250 mg, a DL50 (souris Swiss; per os) of 225 mg and a Diurèse (rat vigile; 25 mg/kg par voie IP) of 60%. For the same compound, the Diurèse (rat vigile; 25 mg/kg par voie orale) was 77%, the Diurèse (rat vigile; 50 mg/kg par voie IP) was 200% and the Diurèse (rat vigile; 50 mg/kg par voie orale) was 200%. For the same compound, the “Indice de sédation” value (souris; 50 mg/kg per os) was 76, the “Indice de sédation” value (souris; 100 mg/kg per os) was 164 and the “Indice de sédation chimique” value (souris; 100 mg/kg per os) was 179. The “Indice de sédation” value (souris; 100 mg/kg voie I.P.) was 236, the “potentialise l'effet de la Chlorpromazine” value ([1]; with Chlorpromazine) was 50% and the “potentialise l'effet hypnotique du Nembutal” value ([1]; with Nembutal) was 146%. The “antagonise les effets de l'amphétamine” value ([1]; with amphétamine) was 70% and the “potentialise l'effet de la morphine” value ([1]; with morphine) was 40%.
